Measured values reported in publication PMC5874133 (Science immunology, 2018).

Tested on: ZnT8_186–194-reactive CD8^+ T-cell clones
Assay type: cell-based, human
Details: MMr co-staining (Fig. 7D) and in-vitro recall (Fig. 7E); clones D222D 2, D349D 178B9, H017N A1, H328C 9C8

Q: How did the “ZnT8_186–194-reactive clones cross-recognizing the mimotope” value turn out when KAANIVLTV [B. stercoris mimotope] was run?
A: 1 of 4
